The target in test [1] is T1, human dopamine D4 receptor subtype (Homo sapiens, UniProt P21917).
T1 construct: expressed in transfected cells
T1 sequence (P21917 1-419): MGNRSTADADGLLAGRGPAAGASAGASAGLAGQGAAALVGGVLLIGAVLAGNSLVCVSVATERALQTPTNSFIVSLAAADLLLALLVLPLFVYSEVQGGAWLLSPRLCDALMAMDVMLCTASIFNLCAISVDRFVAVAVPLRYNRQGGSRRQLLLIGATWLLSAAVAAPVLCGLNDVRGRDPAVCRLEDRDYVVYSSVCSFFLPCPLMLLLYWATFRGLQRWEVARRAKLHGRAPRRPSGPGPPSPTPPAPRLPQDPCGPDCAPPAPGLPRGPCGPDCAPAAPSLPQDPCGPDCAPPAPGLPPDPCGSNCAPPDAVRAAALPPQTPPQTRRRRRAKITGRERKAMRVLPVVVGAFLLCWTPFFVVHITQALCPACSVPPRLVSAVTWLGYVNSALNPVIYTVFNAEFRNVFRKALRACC
The experiment in a line: D4 receptor binding, displacement of [3H]YM-09151-2. The procedure: Assay for D4 Receptor Binding Activity
Clonal cell lines expressing the human dopamine D4 receptor subtype were harvested in PBS and the cells centrifuged and the pellets stored at −80° C. until used in the binding assay. […] The homogenate is centrifuged at 48000×g for 10 minutes at 4° C. The resulting pellet is resuspended in fresh buffer and centrifuged again. After resuspension of the pellet in fresh buffer at […] aliquot is removed for protein determination. […] Incubations were carried out for 60 minutes at 25° C. in the presence of 0.1 nM [^3H] […] Non-specific binding was determined with 1 mM spiperone and radioactivity determined by counting in an LKB beta counter. Binding parameters were determined by non-linear least squares regression analysis, from which the inhibition constant (ki) could be calculated for each test compound.

The target of test [2] is T2, dopamine D4 receptors in rat hippocampus (Rattus norvegicus, UniProt P30729).
T2 construct: from tissue; host or cells: rat hippocampus (from the head of the results)
T2 sequence (P30729 1-387): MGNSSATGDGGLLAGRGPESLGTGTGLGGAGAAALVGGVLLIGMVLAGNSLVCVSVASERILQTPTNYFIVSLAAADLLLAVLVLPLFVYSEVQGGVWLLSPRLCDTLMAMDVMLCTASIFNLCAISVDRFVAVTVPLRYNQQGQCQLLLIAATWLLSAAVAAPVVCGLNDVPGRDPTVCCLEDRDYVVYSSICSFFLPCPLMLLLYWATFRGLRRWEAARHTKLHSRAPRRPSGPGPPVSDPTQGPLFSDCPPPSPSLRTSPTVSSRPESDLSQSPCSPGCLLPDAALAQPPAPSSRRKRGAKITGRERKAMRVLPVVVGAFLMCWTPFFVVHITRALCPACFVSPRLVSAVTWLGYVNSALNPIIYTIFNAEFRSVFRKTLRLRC
The experiment in a line: Binding to D4 receptors in rat hippocampus.

Test [3] addresses T3, dopamine D4 receptors in human hippocampus (Homo sapiens, UniProt P21917).
T3 construct: from tissue; host or cells: human hippocampus (from the head of the results)
T3 sequence (P21917 1-419): T1 sequence (P21917 1-419)
The experiment in a line: Binding to D4 receptors in human hippocampus.

Test [4] relates to male Sprague Dawley rats (learning and memory). The experiment in a line: Step-down passive avoidance task. The test is classed as in vivo, rat.
Experimental: Non-naive male Sprague Dawley rats (SASCO St. Louis) weighing between 2000-300 grams, were housed in groups of three in a temperature and humidity controlled vivarium having a 12 hour light/dark cycle. Animals had ad lib access to food and water.
Both drugs were administered intravenously 5 minutes prior to training in both learning tasks.
Step-Down Passive Avoidance: A step-down passive avoidance platform 4 (cm)×7 (cm) was placed in the center of an electrified gris floor, which was contained within a large (45×45×50 cm) white translucent plexiglas enclosure having a closable lid. The bars of the grip were spaced 1.5 cm apart and were wired to a BRS-LVE shock generator/scrambler which was set to deliver a 2 mA 6 second shock. Four passive avoidance boxes were automated by customer software (Labview) and commercial interface modules (National Instruments) connected to a computer. The timing and delivery of the shock as well as the latency to steo down and the number of trials taken to reach criterion during raining was under the control of the computer. All testing was done in the presence of 62 db white noise. […]
Retention Testing: Testing was conduced approximately 24 hours after training, Drug-free animals were placed on the platform in the box in which they were trained and the latency to step down onto the unshocked floor was recorded for one trial. […]

The structures appear in SMILES notation. Where a name gives a salt, the structure may show the parent alone.

The molecule `c1ccc(-c2ncc(CN3CCN(c4ccccc4)CC3)[nH]2)cc1` [Compound 45, 2-Phenyl-4(5)-[(4-phenyl-piperazin-1-yl)methyl]-imidazole] returned an inhibition constant Ki in test [1] of 5 nM. Besides, the “binding to dopamine D4 receptors, functional type” value (“binding to dopamine D4 receptors” below) in test [2] and in test [3] was “antagonists binding to dopamine D4 receptors” throughout.
In test [1], `c1ccc(-c2ncc(CN3CCN(c4ncccn4)CC3)[nH]2)cc1` [Compound 23, 2-Phenyl-4(5)-[(4-(2-pyrimidinyl)-piperazin-1-yl)methyl]-imidazole dihydrochloride] returned a Ki of 2.7 nM. Besides, the “passive avoidance retention: time on platform during retest vs vehicle” value in test [4] (0.25 mg/kg i.v., retest about 24 h after training) is recorded as “significantly longer time”. The “passive avoidance acquisition vs vehicle group” value in test [4] (0.03-1.0 mg/kg i.v. 5 min prior to training) is listed as “no significant differences”. Further, the “binding to dopamine D4 receptors” value in test [2] and in test [3] was “antagonists binding to dopamine D4 receptors” each time.
On to `c1ccc(-c2ncc(CN3CCN(c4ccccn4)CC3)[nH]2)cc1` [Compound 24, 2-Phenyl-4(5)-[(4-(2-pyridyl)-piperazin-1-yl)-methyl]-imidazole dihydrochloride], for which the “binding to dopamine D4 receptors” value in test [2] and in test [3] was “antagonists binding to dopamine D4 receptors” throughout.

By Ki is commonly meant a dissociation constant, usually derived from enzyme kinetics or from competition with a known ligand. The low end stands for tighter binding, the high end for weaker binding.

(Values after patent US6797824B2, “Certain 4-aminomethyl-2-substituted imidazole derivatives and 2-aminomethyl-4-substituted imidazole derivatives; new classes of dopamine receptor subtype specific ligands” (Neurogen Corporation, priority 1990, dated 2004).)
